This note sets out measurements from ChEMBL document CHEMBL6109080, “Synthesis and mechanistic insights of Coumarinyl-Indolinone hybrids as potent inhibitors of Leishmania major” (Eur J Med Chem, 2025).

Data set [1] concerns Leishmania major. Nature of the data set: Antileishmanial activity against intracellular amastigotes form of Leishmania major assessed as inhibition of parasite growth by alamar-blue reduction assay. Format: functional, organism-based. On the technique in general: Alamar Blue is a resazurin reagent that responds to reducing activity.
For data set [2], the system named is Leishmania major. Nature of the data set: Antileishmanial activity against […] promastigote form of Leishmania major assessed as inhibition of parasite growth by alamar-blue reduction assay. The format is functional, organism-based.
The test system of a further data set is Leishmania infantum. Nature of the data set: Antileishmanial activity against Leishmania infantum MHOM/MA(BE)/67 infected in mouse peritoneal macrophage cell incubated for 5 days by giemsa staining based analysis. The format is functional, organism-based. Conditions: MHOM/MA(BE)/67, Peritoneal macrophage cell, 120 h.
The nature of data set [3]: Hepatotoxicity in male mouse assessed as ALT level at 50 mg/kg, ip measured after 48 hrs (reference value: 28.23 +/- 6.57 U/L). The format is toxicity, organism-based. Conditions: in vivo.
A short description of data set [4]: Selectivity index, ratio of CC50 for cytotoxicity against African green monkey Vero cells assessed as reduction in cell viability to IC50 for antileishmanial activity against Leishmania major amastigotes assessed as inhibition of parasite growth. Format: toxicity, cell-based. The settings on record: read-out: Ratio CC50/IC50.
The nature of data set [5]: Renal toxicity in male mouse assessed as serum creatinine level at 200 mg/kg, ip measured after 48 hrs (reference value: 0.66 +/- 0.02 mg/dl). The settings on record: in vivo. Format: organism-based.
Data set [6] concerns Leishmania major. Nature of the data set: Antileishmanial activity against Leishmania major promastigotes assessed as parasite survival preincubated with 20 uM folinic acid for 1 hrs followed by compound addition and measured after 48 hrs by hemocytometric analysis relative to control. Format: functional.
Data set [7] relates to Leishmania major. Nature of the data set: Antileishmanial activity against Leishmania major promastigotes assessed as parasite survival measured after 72 hrs by hemocytometric analysis relative to control. The format is functional.
Data set [8] is described as follows: Hepatotoxicity in male mouse assessed as ALT level at 200 mg/kg, ip measured after 48 hrs (reference value: 28.23 +/- 6.57 U/L). Format: toxicity, organism-based. The settings on record: in vivo.
Data set [9] can be described thus: Hepatotoxicity in male mouse assessed as AST level at 200 mg/kg, ip measured after 48 hrs (reference value: 47.72 +/- 4.77 U/L). Conditions: in vivo. Format: toxicity, organism-based.
Data set [10] is described as follows: Cytotoxicity against African green monkey Vero cells assessed as reduction in cell survival incubated for 72 hrs by crystal violet staining based analysis. Conditions: chlorocebus sabaeus. Format: toxicity.
The nature of data set [11]: Hepatotoxicity in male mouse assessed as effect on ALP level at 200 mg/kg, ip measured after 48 hrs (reference value: 115.44 +/- 8.03 U/L). Format: toxicity, organism-based. Conditions: in vivo.
The nature of data set [12]: Toxicity in male mouse assessed as CK-MB level at 50 mg/kg, ip measured after 48 hrs (reference value: 41.27 +/- […]). The format is organism-based. Conditions: in vivo.
Data set [13] can be described thus: Renal toxicity in male mouse assessed as serum urea level at 200 mg/kg, ip measured after 48 hrs (reference value: 36.51 +/- 1.51 mg/dl). Format: organism-based. The settings on record: in vivo.
Data set [14] in a line: Renal toxicity in male mouse assessed as serum creatinine level at 50 mg/kg, ip measured after 48 hrs (reference value: 0.66 +/- 0.02 mg/dl). The settings on record: in vivo. The format is organism-based.
The nature of data set [15]: Hepatotoxicity in male mouse assessed as AST level at 50 mg/kg, ip measured after 48 hrs (reference value: 47.72 +/- 4.77 U/L). The format is toxicity, organism-based. Conditions: in vivo.
The subject of data set [16] is Leishmania major. Nature of the data set: Antileishmanial activity against Leishmania major promastigotes assessed as parasite survival preincubated with 100 uM folinic acid for 1 hrs followed by compound addition and measured after 48 hrs by hemocytometric analysis relative to control. Format: functional.
Data set [17] deals with Leishmania major. Nature of the data set: Antileishmanial activity against Leishmania major promastigotes assessed as parasite survival preincubated with 20 uM folic acid for 1 hrs followed by compound addition and measured after 48 hrs by hemocytometric analysis relative to control. Format: functional.
Data set [18] relates to Leishmania major. Nature of the data set: Antileishmanial activity against Leishmania major promastigotes assessed as parasite survival preincubated with 100 uM folic acid for 1 hrs followed by compound addition and measured after 48 hrs by hemocytometric analysis relative to control. Format: functional.
A short description of data set [19]: Hepatotoxicity in male mouse assessed as ALP level at 50 mg/kg, ip measured after 48 hrs (reference value: 115.44 +/- 8.03 U/L). Conditions: in vivo. The format is toxicity, organism-based.
The nature of data set [20]: Renal toxicity in male mouse assessed as serum urea level at 50 mg/kg, ip measured after 48 hrs (reference value: 36.51 +/- 1.51 mg/dl). The format is organism-based. Conditions: in vivo.
A short description of data set [21]: Toxicity in male mouse assessed as CK-MB level at 200 mg/kg, ip measured after 48 hrs (reference value: 41.27 +/- […]). Format: organism-based. Conditions: in vivo.
Data set [22] has as its system Leishmania major. Nature of the data set: Antileishmanial activity against Leishmania major promastigotes assessed as parasite survival at 100 uM measured after 72 hrs by hemocytometric analysis relative to control.

In the case of `CC(C)CN1C(=O)C(n2nc(-c3c(O)c4ccccc4oc3=O)cc2-c2ccc(Br)cc2)c2cc(Br)ccc21` (stereo unspecified), the IC50 turned out to be 8.22 µM with Leishmania major [1] and 6.93 µM in the data set with Leishmania major [2].

`CCCN1C(=O)C(n2nc(-c3c(O)c4ccccc4oc3=O)cc2-c2ccc(Br)cc2)c2cc(Cl)ccc21` (stereo unspecified): the IC50 with Leishmania major [1] worked out at 6.82 µM; in the data set with Leishmania major [2] it was 4.73 µM.

As to `CC(C)CN1C(=O)C(n2nc(-c3c(O)c4ccccc4oc3=O)cc2-c2ccc(F)cc2)c2cc(Cl)ccc21` (stereo unspecified), the IC50 in the data set on Leishmania major [1] is 7.28 µM; in the data set with Leishmania major [2] it was 5.71 µM.

Take `CC(C)CN1C(=O)C(n2nc(-c3c(O)c4ccccc4oc3=O)cc2-c2ccc(F)cc2)c2cc(Br)ccc21` (stereo unspecified): the IC50 with Leishmania major [1] turned out to be 6.87 µM; in the data set on Leishmania major [2], 6.22 µM.

The molecule `O=C(Nc1cc(-c2ccccc2F)n[nH]1)Oc1ccccc1` returned a 50% inhibitory concentration (IC50) with Leishmania infantum of 20 µM.

As for `O=C1Nc2ccc([N+](=O)[O-])cc2C1n1nc(-c2c(O)c3ccccc3oc2=O)cc1-c1ccc(Cl)cc1` (stereo unspecified), the Activity was found to be 29.39 U/L in data set [3]; 0.61 mg/dL in data set [5]; 32.59 U/L in data set [8]; 48.89 U/L in data set [9]; 113.63 U/L in data set [11]; 44.71 U/L in data set [12]. The Activity in data set [13] came out at 38.32 mg/dL; in [14], 0.62 mg/dL; in data set [15], 45.98 U/L; in [19] it was 106.35 U/L; in [20] it was 34.17 mg/dL; in data set [21] it was 44.71 U/L. Also, the selectivity ratio in data set [4] amounted to 42.3. For the same molecule, the Survival worked out at 78% in the data set on Leishmania major [6]; 21% in the data set with Leishmania major [7]; 85% in the data set with Leishmania major [16]; 68% with Leishmania major [17]; 73% in the data set with Leishmania major [18]. For the same molecule, the results for the IC50 in the data set with Leishmania major [1] and in the data set with Leishmania major [2] were 1.44 µM and 1.43 µM, respectively. Further, in [10], the cytotoxic concentration (CC50) at 72 h came to 60.7 µM.

Turning to `O=C1Nc2ccc([N+](=O)[O-])cc2C1n1nc(-c2c(O)c3ccccc3oc2=O)cc1-c1ccc(Br)cc1` (stereo unspecified), the half-maximal inhibitory concentration (IC50) is 3.88 µM with Leishmania major [1] and 2.47 µM in the data set on Leishmania major [2].

As to `CN1C(=O)C(n2nc(-c3c(O)c4ccccc4oc3=O)cc2-c2ccc(F)cc2)c2cc(Cl)ccc21` (stereo unspecified), the results for the IC50 with Leishmania major [1] and in the data set with Leishmania major [2] were 6.82 µM and 4.05 µM, respectively.

As for `O=C1C(n2nc(-c3c(O)c4ccccc4oc3=O)cc2-c2ccc(Cl)cc2)c2ccccc2N1CCc1ccccc1` (stereo unspecified), the concentration for half-maximal inhibition (IC50) in the data set with Leishmania major [1] came out at 8.47 µM; with Leishmania major [2] it was 5.92 µM.

With `O=C1C(n2nc(-c3c(O)c4ccccc4oc3=O)cc2-c2ccc(Br)cc2)c2ccccc2N1CCc1ccccc1` (stereo unspecified), the concentration for half-maximal inhibition (IC50) in the data set on Leishmania major [1] came to 9.44 µM; in the data set on Leishmania major [2] it was 7.21 µM.

Consider `CCCN1C(=O)C(n2nc(-c3c(O)c4ccccc4oc3=O)cc2-c2ccc(F)cc2)c2cc(Cl)ccc21` (stereo unspecified), for which the IC50 is 5.82 µM in the data set on Leishmania major [1] and 4.64 µM in the data set with Leishmania major [2].

Take `CC(C)CN1C(=O)C(n2nc(-c3c(O)c4ccccc4oc3=O)cc2-c2ccc(Br)cc2)c2cc(Cl)ccc21` (stereo unspecified): the half-maximal inhibitory concentration (IC50) in the data set with Leishmania major [1] was determined as 6.64 µM; in the data set with Leishmania major [2], 5.07 µM.

On to `CCCN1C(=O)C(n2nc(-c3c(O)c4ccccc4oc3=O)cc2-c2ccc(Cl)cc2)c2cc(Cl)ccc21` (stereo unspecified), for which the half-inhibitory concentration (IC50) was determined as 7.29 µM in the data set on Leishmania major [1] and 5.6 µM in the data set on Leishmania major [2].

In the data set with Leishmania infantum, `COc1ccc(-c2cc(NC(=O)N3CCC(Cc4ccccc4)CC3)[nH]n2)cc1` showed an IC50 of 19 µM.

Turning to `CC(C)CN1C(=O)C(n2nc(-c3c(O)c4ccccc4oc3=O)cc2-c2ccc(Cl)cc2)c2cc(Cl)ccc21` (stereo unspecified), the concentration for half-maximal inhibition (IC50) was 8.25 µM in the data set with Leishmania major [1] and 6.59 µM in the data set on Leishmania major [2].

Take `CC(C)CN1C(=O)C(n2nc(-c3c(O)c4ccccc4oc3=O)cc2-c2ccc(Cl)cc2)c2cc(Br)ccc21` (stereo unspecified): the figures for the concentration for half-maximal inhibition (IC50) in the data set on Leishmania major [1] and with Leishmania major [2] were 7.54 µM and 5.99 µM, respectively.

On to `COc1cc(Cc2cnc(N)nc2N)cc(OC)c1OC` [TRIMETHOPRIM], for which the Survival with Leishmania major [18] is 99%. Besides, in the data set with Leishmania major [22], the survival at 100 µM is 72%.

Usually IC50 stands for the concentration that inhibits the measured activity by half. A word on the CC50: it is the concentration giving 50% cytotoxicity.
